Values belong to the compound of their own block, whether it stands above or below them.
What was measured:
Conditions in all cases: binder
CaMK4 = target: T1, CaMK4 (Homo sapiens, UniProt Q16566)
T1 sequence (Q16566 1-473): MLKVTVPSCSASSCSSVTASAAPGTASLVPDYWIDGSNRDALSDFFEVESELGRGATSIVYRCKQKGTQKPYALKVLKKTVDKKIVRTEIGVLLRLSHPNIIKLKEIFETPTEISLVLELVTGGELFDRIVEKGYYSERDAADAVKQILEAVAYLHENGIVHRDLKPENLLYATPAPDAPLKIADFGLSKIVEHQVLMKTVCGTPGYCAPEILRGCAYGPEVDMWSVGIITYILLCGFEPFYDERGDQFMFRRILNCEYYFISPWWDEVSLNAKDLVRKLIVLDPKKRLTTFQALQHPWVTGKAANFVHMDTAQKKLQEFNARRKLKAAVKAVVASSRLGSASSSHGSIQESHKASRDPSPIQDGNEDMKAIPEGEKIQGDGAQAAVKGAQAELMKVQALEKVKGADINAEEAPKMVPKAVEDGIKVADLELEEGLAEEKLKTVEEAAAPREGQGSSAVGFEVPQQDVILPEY

CK1e = CK1e (Homo sapiens, UniProt P49674)
Sequence of CK1e (P49674 whole entry): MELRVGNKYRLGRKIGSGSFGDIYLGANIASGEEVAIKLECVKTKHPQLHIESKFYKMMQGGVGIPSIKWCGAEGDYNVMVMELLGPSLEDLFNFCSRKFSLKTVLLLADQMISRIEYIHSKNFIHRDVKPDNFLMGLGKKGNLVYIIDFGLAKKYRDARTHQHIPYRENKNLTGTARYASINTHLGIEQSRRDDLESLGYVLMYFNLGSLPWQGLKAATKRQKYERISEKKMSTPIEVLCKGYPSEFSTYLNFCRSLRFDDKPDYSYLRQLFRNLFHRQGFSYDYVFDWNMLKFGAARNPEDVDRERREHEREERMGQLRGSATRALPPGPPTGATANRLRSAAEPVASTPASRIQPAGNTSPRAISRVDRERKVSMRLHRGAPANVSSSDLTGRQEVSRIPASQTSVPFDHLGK

MRCKa = MRCKa (Homo sapiens, UniProt Q5VT25)
Sequence of MRCKa (Q5VT25 whole entry): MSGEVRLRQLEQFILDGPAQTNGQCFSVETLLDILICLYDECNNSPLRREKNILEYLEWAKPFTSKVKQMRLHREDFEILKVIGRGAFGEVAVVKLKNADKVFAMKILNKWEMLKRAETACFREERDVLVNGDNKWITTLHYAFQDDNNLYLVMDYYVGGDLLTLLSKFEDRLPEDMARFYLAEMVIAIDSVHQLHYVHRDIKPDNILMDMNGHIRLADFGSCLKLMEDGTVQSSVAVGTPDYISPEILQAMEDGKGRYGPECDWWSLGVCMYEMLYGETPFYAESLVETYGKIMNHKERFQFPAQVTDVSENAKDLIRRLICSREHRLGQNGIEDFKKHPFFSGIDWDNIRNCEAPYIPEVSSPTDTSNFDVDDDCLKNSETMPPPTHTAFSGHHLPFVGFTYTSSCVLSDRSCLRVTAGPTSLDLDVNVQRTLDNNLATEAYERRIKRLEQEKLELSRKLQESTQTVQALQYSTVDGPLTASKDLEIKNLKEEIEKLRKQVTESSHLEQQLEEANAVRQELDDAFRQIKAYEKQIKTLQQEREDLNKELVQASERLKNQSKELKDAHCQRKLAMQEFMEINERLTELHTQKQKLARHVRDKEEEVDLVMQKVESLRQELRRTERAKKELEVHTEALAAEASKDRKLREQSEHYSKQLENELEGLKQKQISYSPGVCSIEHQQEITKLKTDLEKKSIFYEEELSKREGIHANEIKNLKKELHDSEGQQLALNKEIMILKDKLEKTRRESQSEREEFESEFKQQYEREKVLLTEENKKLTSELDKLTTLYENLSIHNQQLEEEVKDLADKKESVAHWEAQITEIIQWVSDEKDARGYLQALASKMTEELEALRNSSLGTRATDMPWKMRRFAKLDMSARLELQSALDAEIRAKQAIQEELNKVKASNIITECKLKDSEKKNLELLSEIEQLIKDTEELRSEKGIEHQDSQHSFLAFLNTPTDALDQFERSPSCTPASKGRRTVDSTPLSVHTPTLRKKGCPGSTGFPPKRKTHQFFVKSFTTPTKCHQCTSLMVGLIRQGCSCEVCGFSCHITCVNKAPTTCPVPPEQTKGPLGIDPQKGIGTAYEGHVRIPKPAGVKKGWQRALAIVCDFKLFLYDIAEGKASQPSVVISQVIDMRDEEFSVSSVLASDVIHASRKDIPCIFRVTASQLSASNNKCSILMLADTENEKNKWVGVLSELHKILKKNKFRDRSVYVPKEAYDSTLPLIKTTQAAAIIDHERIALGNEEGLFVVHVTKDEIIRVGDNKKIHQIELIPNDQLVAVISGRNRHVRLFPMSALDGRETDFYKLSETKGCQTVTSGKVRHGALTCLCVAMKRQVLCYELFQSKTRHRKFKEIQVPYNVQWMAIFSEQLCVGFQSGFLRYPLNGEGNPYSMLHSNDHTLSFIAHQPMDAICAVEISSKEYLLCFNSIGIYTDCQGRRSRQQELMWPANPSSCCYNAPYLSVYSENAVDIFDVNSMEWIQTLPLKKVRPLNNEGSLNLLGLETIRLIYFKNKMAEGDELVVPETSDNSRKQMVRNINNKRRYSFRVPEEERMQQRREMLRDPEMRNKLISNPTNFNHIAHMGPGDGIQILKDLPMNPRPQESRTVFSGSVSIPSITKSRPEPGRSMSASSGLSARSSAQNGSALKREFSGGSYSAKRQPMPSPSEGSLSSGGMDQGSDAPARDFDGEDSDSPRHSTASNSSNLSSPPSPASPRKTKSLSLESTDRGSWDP

EphA7 = EphA7 (Homo sapiens, UniProt Q15375)
Sequence of EphA7 (Q15375 whole entry): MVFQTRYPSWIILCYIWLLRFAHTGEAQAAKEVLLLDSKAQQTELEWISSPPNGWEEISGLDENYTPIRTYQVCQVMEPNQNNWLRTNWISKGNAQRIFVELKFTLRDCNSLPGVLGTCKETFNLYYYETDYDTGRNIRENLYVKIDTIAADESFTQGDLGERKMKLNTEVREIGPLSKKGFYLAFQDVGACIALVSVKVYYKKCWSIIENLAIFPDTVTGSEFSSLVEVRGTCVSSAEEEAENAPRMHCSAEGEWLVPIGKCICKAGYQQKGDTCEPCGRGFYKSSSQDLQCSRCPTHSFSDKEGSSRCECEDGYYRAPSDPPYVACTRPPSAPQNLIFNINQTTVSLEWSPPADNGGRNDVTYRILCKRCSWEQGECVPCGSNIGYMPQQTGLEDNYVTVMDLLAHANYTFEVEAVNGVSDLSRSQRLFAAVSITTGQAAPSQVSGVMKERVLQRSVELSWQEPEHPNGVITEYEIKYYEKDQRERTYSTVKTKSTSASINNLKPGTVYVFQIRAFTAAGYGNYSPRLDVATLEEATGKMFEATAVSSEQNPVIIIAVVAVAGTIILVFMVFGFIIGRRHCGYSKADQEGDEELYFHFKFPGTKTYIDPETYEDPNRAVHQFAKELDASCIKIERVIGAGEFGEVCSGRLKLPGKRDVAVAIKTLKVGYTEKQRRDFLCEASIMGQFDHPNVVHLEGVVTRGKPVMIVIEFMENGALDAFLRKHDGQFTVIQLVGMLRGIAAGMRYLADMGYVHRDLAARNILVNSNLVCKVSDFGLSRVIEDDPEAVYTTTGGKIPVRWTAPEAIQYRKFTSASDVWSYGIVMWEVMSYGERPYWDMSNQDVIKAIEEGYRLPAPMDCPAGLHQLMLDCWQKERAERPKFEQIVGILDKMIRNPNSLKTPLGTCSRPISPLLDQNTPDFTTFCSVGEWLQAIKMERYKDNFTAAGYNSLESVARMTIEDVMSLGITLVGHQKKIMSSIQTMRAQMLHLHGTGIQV

DMPK1 = target: T2, DMPK1 (Homo sapiens, UniProt Q09013)
T2 sequence (Q09013 1-629): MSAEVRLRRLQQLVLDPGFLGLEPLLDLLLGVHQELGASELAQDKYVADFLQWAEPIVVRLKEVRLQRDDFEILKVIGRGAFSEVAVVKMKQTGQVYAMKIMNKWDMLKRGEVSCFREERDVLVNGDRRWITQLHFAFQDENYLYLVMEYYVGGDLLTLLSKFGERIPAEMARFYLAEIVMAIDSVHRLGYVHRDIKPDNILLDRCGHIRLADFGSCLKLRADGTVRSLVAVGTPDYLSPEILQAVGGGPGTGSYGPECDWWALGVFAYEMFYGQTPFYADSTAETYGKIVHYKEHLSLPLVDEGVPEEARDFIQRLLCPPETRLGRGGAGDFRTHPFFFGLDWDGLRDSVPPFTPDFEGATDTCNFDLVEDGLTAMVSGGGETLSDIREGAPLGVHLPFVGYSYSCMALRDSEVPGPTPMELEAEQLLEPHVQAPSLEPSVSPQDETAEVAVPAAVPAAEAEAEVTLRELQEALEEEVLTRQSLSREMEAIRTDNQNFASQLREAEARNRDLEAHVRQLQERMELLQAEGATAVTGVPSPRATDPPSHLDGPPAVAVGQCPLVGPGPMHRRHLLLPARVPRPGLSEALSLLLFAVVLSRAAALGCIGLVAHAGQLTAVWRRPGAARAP

PAK4 = PAK4 (Homo sapiens, UniProt O96013)
Sequence of PAK4 (O96013 whole entry): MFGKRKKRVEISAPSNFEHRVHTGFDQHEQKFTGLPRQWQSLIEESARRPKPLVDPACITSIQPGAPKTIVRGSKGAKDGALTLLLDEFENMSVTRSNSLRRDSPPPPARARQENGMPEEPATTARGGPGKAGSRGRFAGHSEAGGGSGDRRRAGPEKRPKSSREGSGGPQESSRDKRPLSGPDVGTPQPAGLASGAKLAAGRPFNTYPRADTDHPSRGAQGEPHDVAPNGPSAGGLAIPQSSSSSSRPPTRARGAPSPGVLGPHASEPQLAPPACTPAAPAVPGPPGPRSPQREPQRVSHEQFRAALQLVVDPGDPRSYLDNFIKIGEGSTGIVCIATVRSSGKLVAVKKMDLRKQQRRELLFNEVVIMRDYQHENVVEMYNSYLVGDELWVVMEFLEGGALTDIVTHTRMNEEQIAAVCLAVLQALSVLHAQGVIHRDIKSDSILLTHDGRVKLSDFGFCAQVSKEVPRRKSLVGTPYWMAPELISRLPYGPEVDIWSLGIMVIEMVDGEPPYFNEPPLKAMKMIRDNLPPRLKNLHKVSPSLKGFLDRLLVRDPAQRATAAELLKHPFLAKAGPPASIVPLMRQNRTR

Erk3 = Erk3 (Homo sapiens, UniProt Q16659)
Sequence of Erk3 (Q16659 whole entry): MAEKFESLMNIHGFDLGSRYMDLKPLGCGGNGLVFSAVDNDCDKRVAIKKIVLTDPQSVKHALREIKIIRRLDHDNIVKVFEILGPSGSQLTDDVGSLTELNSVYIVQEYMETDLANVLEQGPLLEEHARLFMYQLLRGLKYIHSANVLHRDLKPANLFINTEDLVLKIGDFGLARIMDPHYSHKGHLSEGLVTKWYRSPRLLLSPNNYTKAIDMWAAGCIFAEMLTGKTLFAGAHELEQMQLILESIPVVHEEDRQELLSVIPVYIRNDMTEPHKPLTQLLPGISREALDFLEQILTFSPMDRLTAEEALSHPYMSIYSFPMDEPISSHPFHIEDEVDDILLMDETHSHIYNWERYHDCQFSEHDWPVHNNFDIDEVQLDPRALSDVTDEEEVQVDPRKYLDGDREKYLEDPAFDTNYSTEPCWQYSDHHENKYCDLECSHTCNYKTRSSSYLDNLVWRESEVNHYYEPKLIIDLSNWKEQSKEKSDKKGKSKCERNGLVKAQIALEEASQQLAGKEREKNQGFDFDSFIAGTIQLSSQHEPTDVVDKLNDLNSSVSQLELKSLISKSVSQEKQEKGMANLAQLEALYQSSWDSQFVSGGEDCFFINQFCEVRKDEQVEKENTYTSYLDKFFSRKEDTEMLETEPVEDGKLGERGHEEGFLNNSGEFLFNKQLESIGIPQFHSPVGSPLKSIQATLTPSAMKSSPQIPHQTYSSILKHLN

CaMK1d = CaMK1d (Homo sapiens, UniProt Q8IU85)
Sequence of CaMK1d (Q8IU85 whole entry): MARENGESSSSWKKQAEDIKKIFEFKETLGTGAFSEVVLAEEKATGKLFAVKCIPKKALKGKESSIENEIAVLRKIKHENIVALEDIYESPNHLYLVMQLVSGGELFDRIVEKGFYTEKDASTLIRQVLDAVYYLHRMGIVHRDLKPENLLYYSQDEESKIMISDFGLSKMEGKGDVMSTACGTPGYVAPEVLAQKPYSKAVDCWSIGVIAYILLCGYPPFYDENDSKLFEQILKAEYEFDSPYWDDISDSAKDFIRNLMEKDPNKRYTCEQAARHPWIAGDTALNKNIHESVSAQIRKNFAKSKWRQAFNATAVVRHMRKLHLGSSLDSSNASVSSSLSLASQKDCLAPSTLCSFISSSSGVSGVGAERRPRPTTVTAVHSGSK

PHKG2 = target: T3, PHKG2 (Homo sapiens, UniProt P15735)
T3 sequence (P15735 1-406): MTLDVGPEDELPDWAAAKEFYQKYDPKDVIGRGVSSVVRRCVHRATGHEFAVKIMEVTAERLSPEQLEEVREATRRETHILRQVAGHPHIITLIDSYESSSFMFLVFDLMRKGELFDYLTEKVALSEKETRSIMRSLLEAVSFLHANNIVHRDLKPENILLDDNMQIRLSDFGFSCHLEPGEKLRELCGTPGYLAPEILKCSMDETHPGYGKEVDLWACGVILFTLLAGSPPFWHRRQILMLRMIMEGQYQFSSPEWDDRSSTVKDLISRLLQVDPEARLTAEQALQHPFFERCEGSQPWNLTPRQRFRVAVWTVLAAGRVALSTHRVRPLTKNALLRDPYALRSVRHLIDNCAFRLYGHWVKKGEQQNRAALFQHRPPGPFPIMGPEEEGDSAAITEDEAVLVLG

DCAMKL1 = target: T4, DCAMKL1 (Homo sapiens, UniProt O15075)
T4 sequence (O15075 1-740): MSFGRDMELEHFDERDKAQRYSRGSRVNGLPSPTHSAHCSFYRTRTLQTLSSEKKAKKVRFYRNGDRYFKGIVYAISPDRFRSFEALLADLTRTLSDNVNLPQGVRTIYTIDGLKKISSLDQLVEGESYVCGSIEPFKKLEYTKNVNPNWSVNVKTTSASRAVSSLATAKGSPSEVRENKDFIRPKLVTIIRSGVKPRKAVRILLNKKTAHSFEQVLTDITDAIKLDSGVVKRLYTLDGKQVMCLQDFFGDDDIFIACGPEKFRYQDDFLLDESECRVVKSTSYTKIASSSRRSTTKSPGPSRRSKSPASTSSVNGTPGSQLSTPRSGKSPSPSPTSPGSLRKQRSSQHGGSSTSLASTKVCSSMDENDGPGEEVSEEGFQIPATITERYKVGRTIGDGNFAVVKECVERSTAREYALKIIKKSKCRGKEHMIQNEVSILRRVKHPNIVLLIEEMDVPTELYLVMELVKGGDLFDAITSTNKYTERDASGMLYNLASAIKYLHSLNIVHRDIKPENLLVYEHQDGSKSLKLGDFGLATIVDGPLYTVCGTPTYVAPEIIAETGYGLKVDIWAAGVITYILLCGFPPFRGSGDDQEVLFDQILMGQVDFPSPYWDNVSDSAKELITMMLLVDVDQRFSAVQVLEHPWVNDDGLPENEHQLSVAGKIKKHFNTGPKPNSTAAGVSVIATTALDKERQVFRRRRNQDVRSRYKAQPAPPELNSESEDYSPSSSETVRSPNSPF

- ΔTm MR30 (27) (CaMK4): 2.5 °C
- ΔTm MR30 (27) (CK1e): 6.4 °C
- ΔTm MR30 (27) (MRCKa): -0.2 °C
- ΔTm MR30 (27) (EphA7): 1.7 °C
- ΔTm MR30 (27) (DMPK1): -1.4 °C
- ΔTm MR30 (27) (PAK4): 2.8 °C
- ΔTm MR30 (27) (Erk3): 0.5 °C
- ΔTm MR30 (27) (CaMK1d): 2.4 °C
- ΔTm MR30 (27) (PHKG2): 1.2 °C
- ΔTm MR30 (27) (DCAMKL1): -1.8 °C
SMILES: Cc1cccc(-c2ccc(-c3cc4cnc(NCCCN5CCCC5=O)nc4n(CCCCN)c3=O)c(Cl)c2)n1 [compound 27, MR30]

- ΔTm 28 (CaMK4): 3.9 °C
- ΔTm 28 (CK1e): 4.9 °C
- ΔTm 28 (MRCKa): -1.0 °C
- ΔTm 28 (EphA7): 4.2 °C
- ΔTm 28 (DMPK1): -2.4 °C
- ΔTm 28 (PAK4): 3.5 °C
- ΔTm 28 (Erk3): 0.7 °C
- ΔTm 28 (CaMK1d): 4.8 °C
- ΔTm 28 (PHKG2): 2.4 °C
- ΔTm 28 (DCAMKL1): 0.9 °C
SMILES: Cc1cccc(-c2ccc(-c3cc4cnc(Nc5cc(C(F)(F)F)ccc5C)nc4n(CCCCN)c3=O)c(Cl)c2)n1 [compound 28, 8-(4-Aminobutyl)-6-(2-chloro-4-(6-methylpyridin-2-yl)phenyl)-2-((2-methyl-5-(trifluoromethyl)phenyl)amino)pyrido[2,3-d]pyrimidin-7(8H)-one]

- ΔTm 29 (CaMK4): 1.5 °C
- ΔTm 29 (CK1e): 5.8 °C
- ΔTm 29 (MRCKa): -0.3 °C
- ΔTm 29 (EphA7): 4.1 °C
- ΔTm 29 (DMPK1): -1.3 °C
- ΔTm 29 (PAK4): 2.6 °C
- ΔTm 29 (Erk3): 0.3 °C
- ΔTm 29 (CaMK1d): 3.7 °C
- ΔTm 29 (PHKG2): 2.2 °C
- ΔTm 29 (DCAMKL1): -1.7 °C
SMILES: Cc1cccc(-c2ccc(-c3cc4cnc(NCCCN5CCNCC5)nc4n(CCCCN)c3=O)c(Cl)c2)n1 [compound 29, 8-(4-Aminobutyl)-6-(2-chloro-4-(6-methylpyridin-2-yl)phenyl)-2-((3-(piperazin-1-yl)propyl)amino)pyrido[2,3-d]pyrimidin-7(8H)-one]

- ΔTm 30 (CaMK4): 5.5 °C
- ΔTm 30 (CK1e): 8.2 °C
- ΔTm 30 (MRCKa): 4.4 °C
- ΔTm 30 (EphA7): 6.4 °C
- ΔTm 30 (DMPK1): -5.0 °C
- ΔTm 30 (PAK4): 9.0 °C
- ΔTm 30 (Erk3): 1.1 °C
- ΔTm 30 (CaMK1d): 6.8 °C
- ΔTm 30 (PHKG2): 6.7 °C
- ΔTm 30 (DCAMKL1): 2.0 °C
SMILES: Cc1cccc(-c2ccc(-c3cc4cnc(Nc5ccc(CCCO)cc5)nc4n(CCCCN)c3=O)c(Cl)c2)n1 [compound 30, 8-(4-Aminobutyl)-6-(2-chloro-4-(6-methylpyridin-2-yl)phenyl)-2-((4-(3-hydroxypropyl)phenyl)amino)pyrido[2,3-d]pyrimidin-7(8H)-one]

- ΔTm 31 (CaMK4): 5.0 °C
- ΔTm 31 (CK1e): 7.5 °C
- ΔTm 31 (MRCKa): 3.3 °C
- ΔTm 31 (EphA7): 5.1 °C
- ΔTm 31 (DMPK1): -2.0 °C
- ΔTm 31 (PAK4): 8.5 °C
- ΔTm 31 (Erk3): 1.2 °C
- ΔTm 31 (CaMK1d): 5.6 °C
- ΔTm 31 (PHKG2): 6.4 °C
- ΔTm 31 (DCAMKL1): 1.1 °C
SMILES: Cc1cccc(-c2ccc(-c3cc4cnc(Nc5ccc(O)cc5)nc4n(CCCCN)c3=O)c(Cl)c2)n1 [compound 31, 8-(4-Aminobutyl)-6-(2-chloro-4-(6-methylpyridin-2-yl)phenyl)-2-((4-hydroxyphenyl)amino) pyrido[2,3-d]pyrimidin-7(8H)-one]

- ΔTm 32 (CaMK4): 4.9 °C
- ΔTm 32 (CK1e): 7.7 °C
- ΔTm 32 (MRCKa): 4.0 °C
- ΔTm 32 (EphA7): 5.4 °C
- ΔTm 32 (DMPK1): -4.5 °C
- ΔTm 32 (PAK4): 7.9 °C
- ΔTm 32 (Erk3): 1.0 °C
- ΔTm 32 (CaMK1d): 6.0 °C
- ΔTm 32 (PHKG2): 6.4 °C
- ΔTm 32 (DCAMKL1): 1.4 °C
SMILES: Cc1cccc(-c2ccc(-c3cc4cnc(Nc5ccc(C)c(O)c5)nc4n(CCCCN)c3=O)c(Cl)c2)n1 [compound 32, 8-(4-Aminobutyl)-6-(2-chloro-4-(6-methylpyridin-2-yl)phenyl)-2-((3-hydroxy-4-methylphenyl)amino)pyrido[2,3-d]pyrimidin-7(8H)-one]

Reference: publication doi:10.1101/2023.11.24.568596v1 (biorxiv, 2023)
